Source: US12678454B2, “Bicarbonate as a potentiator for antimicrobial agents” (priority 2017, dated 2026)
Bridge positions count the residues as written; N and C are the ends. Square brackets hold non-standard residues; d marks the D form. Peptide text beside a SMILES is read from it. * marks the point of attachment. Ileψ(thiazoline)Cys = CC[C@H](C)[C@H](N)C1=N[C@H](C(=O)*)CS1; dOrn = NCCC[C@@H](N)C(=O)O

Columns and labels:
E. coli (K-12 BW25113) = assay type: cell-based, Escherichia coli; set-up: MIC, E. coli, MHB− / MIC, E. coli, MHB+: unit not given here
Description: (§1) In the following experiments, bacterial cells were cultured in 96-well microtiter plates in cation-adjusted Mueller-Hinton Broth (MHB) for 18 h at 37° C. The main strains used in this study were E. coli (K-12 BW25113) (placed in stationary incubator) and S. aureus (Strain Newman) (incubated at 250 r.p.m). Knockout strains (ΔtolcC and ΔychM) were used from the Keio knockout collection (Baba, T. et al. Construction of Escherichia coli K-12 in-frame, single-gene knockout mutants: the Keio collection. Mol Syst Biol 2, 2006 0008, doi:10.1038/msb4100050 (2006)). For minimum concentration for inhibition (MIC) determination and checkerboard analyses, Clinical & Laboratory Standards Institute (CLSI) protocol was used. […] DiSC3 loading of S. aureus cells was performed as previously described (Farha, M. A., Verschoor, C. P., Bowdish, D. & Brown, E. D. Collapsing the proton motive force to identify synergistic combinations against Staphylococcus aureus. Chemistry & biology 20, 1168-1178, doi:10.1016/j.chembiol.2013.07.006 (2013)). CCCP concentration of 20 μM was used. pH adjustments were made by addition of HCl or NaOH. INT assay and ATP bioluminescence assays were performed as previously described (Farha, M. A., Verschoor, C. P., Bowdish, D. & Brown, E. D. Collapsing the proton motive force to identify synergistic combinations against Staphylococcus aureus. Chemistry & biology 20, 1168-1178, doi:10.1016/j.chembiol.2013.07.006 (2013)). For chemical-genomic studies, the Keio library was grown overnight in cation-adjusted MHB broth, in 384-well plates. From these, treatment plates (25 mM sodium bicarbonate, or a sterile water control) were inoculated and grown for 15 hours at 37° C., in a stationary incubator. Data was normalized according to Mangat et al (Mangat, C. S., Bharat, A., Gehrke, S. S. & Brown, E. D. Rank ordering plate data facilitates data visualization and normalization in high-throughput screening. J Biomol Screen 19, 1314-1320, doi:10.1177/1087057114534298 (2014)), with gene products and GO terms mined from EcoCyc. The GFP promoter library (Keseler, I. M. et al. EcoCyc: fusing model organism databases with systems biology. Nucleic Acids Res 41, D605-612, doi:10.1093/nar/gks1027 (2013)) was grown for 18 hours at ambient temperature with the same inoculation strategy as with the Keio collection. The analysis pipeline of Zaslaver et al (Zaslaver, A. et al. A comprehensive library of fluorescent transcriptional reporters for Escherichia coli. Nat Methods 3, 623-628, doi:10.1038/nmeth895 (2006)) was used to generate maps of promoter activity, from which lists of promoters with increased or decreased activity were compiled.

[1] = system: S. aureus (Strain Newman); assay: MIC determination (CLSI protocol) in MHB; assay type: cell-based, Staphylococcus aureus; conditions: for MIC, S. aureus, MHB−: MHB without sodium bicarbonate
Description: as §1

CC1(C)S[C@@H]2[C@H](NC(=O)[C@H](N)c3ccc(O)cc3)C(=O)N2[C@H]1C(=O)O [Amoxicillin]
Fold, E. coli (E. coli (K-12 BW25113)): −2 fold | MIC, E. coli, MHB+ (E. coli (K-12 BW25113)): 16 | Fold, S. aureus [1]: −4 fold | MIC, S. aureus, MHB− [1]: 0.25 µg/mL

CC1(C)S[C@@H]2[C@H](NC(=O)[C@H](N)c3ccccc3)C(=O)N2[C@H]1C(=O)O [Ampicillin]
Fold, E. coli (E. coli (K-12 BW25113)): −2 fold | MIC, E. coli, MHB+ (E. coli (K-12 BW25113)): 32 | Fold, S. aureus [1]: −8 fold | MIC, S. aureus, MHB− [1]: 1 µg/mL

CN[C@@H]1[C@@H](O[C@H]2O[C@H](CO)[C@@H](N)[C@H](O)[C@H]2O)OC2C[C@@H](N)[C@@H](O[C@H]3[C@H](O)[C@@H](O)[C@H](N)C[C@@H]3N)OC2[C@@H]1O (stereo partly drawn) [Apramycin]
Fold, E. coli (E. coli (K-12 BW25113)): 4 fold | MIC, E. coli, MHB+ (E. coli (K-12 BW25113)): 8 | Fold, S. aureus [1]: 0.5 fold | MIC, S. aureus, MHB− [1]: 16 µg/mL

CC[C@H](C)[C@H](N)C1=N[C@H](C(=O)N[C@@H](CC(C)C)C(=O)N[C@H](CCC(=O)O)C(=O)N[C@H](C(=O)N[C@H]2CCCCNC(=O)[C@H](CC(N)=O)NC(=O)[C@@H](CC(=O)O)NC(=O)[C@H](Cc3cnc[nH]3)NC(=O)[C@@H](Cc3ccccc3)NC(=O)[C@H]([C@@H](C)CC)NC(=O)[C@@H](CCCN)NC2=O)[C@@H](C)CC)CS1 [Bacitracin] ({Ileψ(thiazoline)Cys}-L[dE]IK[dOrn]I[dF]H[dD]N; lactam 4-C)
Fold, E. coli (E. coli (K-12 BW25113)): 1 fold | MIC, E. coli, MHB+ (E. coli (K-12 BW25113)): >256 | Fold, S. aureus [1]: −2 fold | MIC, S. aureus, MHB− [1]: 32 µg/mL

N[C@@H]1CCCCN(c2c(F)cc3c(=O)c(C(=O)O)cn(C4CC4)c3c2Cl)C1 [Besifloxacin]
Fold, E. coli (E. coli (K-12 BW25113)): 8 fold | MIC, E. coli, MHB+ (E. coli (K-12 BW25113)): 0.0313 | Fold, S. aureus [1]: −2 fold | MIC, S. aureus, MHB− [1]: 0.125 µg/mL

CCN1CCN(C(=O)N[C@@H](C(=O)N[C@@H]2C(=O)N3C(C(=O)O)=C(CSc4nnnn4C)CS[C@H]23)c2ccc(O)cc2)C(=O)C1=O [Cefoperazone]
Fold, E. coli (E. coli (K-12 BW25113)): 1 fold | MIC, E. coli, MHB+ (E. coli (K-12 BW25113)): 0.125 | Fold, S. aureus [1]: −16 fold | MIC, S. aureus, MHB− [1]: 0.25 µg/mL

CO/N=C(\C(=O)N[C@@H]1C(=O)N2C(C(=O)O)=C(CSc3nc(=O)c(=O)[nH]n3C)CS[C@H]12)c1csc(N)n1 [Ceftriaxone]
Fold, E. coli (E. coli (K-12 BW25113)): 1 fold | MIC, E. coli, MHB+ (E. coli (K-12 BW25113)): 0.625 | Fold, S. aureus [1]: −4 fold | MIC, S. aureus, MHB− [1]: 4 µg/mL

O=C(N[C@H](CO)[C@H](O)c1ccc([N+](=O)[O-])cc1)C(Cl)Cl [Chloramphenicol]
Fold, E. coli (E. coli (K-12 BW25113)): 1 fold | MIC, E. coli, MHB+ (E. coli (K-12 BW25113)): 8 | Fold, S. aureus [1]: 1 fold | MIC, S. aureus, MHB− [1]: 8 µg/mL

Cc1onc(-c2ccccc2Cl)c1C(=O)N[C@@H]1C(=O)N2[C@@H]1SC(C)(C)[C@@H]2C(=O)O [Cloxacillin]
Fold, E. coli (E. coli (K-12 BW25113)): 1 fold | MIC, E. coli, MHB+ (E. coli (K-12 BW25113)): 256 | Fold, S. aureus [1]: −16 fold | MIC, S. aureus, MHB− [1]: 0.031 µg/mL

CC[C@H]1OC(=O)[C@H](C)[C@@H](O[C@H]2C[C@@](C)(OC)[C@@H](O)[C@H](C)O2)[C@H](C)[C@@H](O[C@@H]2O[C@H](C)C[C@H](N(C)C)[C@H]2O)[C@](C)(O)C[C@@H](C)[C@@H]2N[C@@H](COCCOC)O[C@H]([C@H]2C)[C@]1(C)O [Dirithromycin]
Fold, E. coli (E. coli (K-12 BW25113)): 32 fold | MIC, E. coli, MHB+ (E. coli (K-12 BW25113)): 4 | Fold, S. aureus [1]: 8 fold | MIC, S. aureus, MHB− [1]: 4 µg/mL

C[C@H]1c2cccc(O)c2C(=O)C2=C(O)[C@]3(O)C(=O)C(C(N)=O)=C(O)[C@@H](N(C)C)[C@@H]3[C@@H](O)[C@@H]21 [Doxycycline]
Fold, E. coli (E. coli (K-12 BW25113)): −4 fold | MIC, E. coli, MHB+ (E. coli (K-12 BW25113)): 4 | Fold, S. aureus [1]: −16 fold | MIC, S. aureus, MHB− [1]: 0.125 µg/mL

CCn1cc(C(=O)O)c(=O)c2cc(F)c(N3CCNCC3)nc21 [Enoxacin]
Fold, E. coli (E. coli (K-12 BW25113)): 2 fold | MIC, E. coli, MHB+ (E. coli (K-12 BW25113)): 0.125 | Fold, S. aureus [1]: −2 fold | MIC, S. aureus, MHB− [1]: 1 µg/mL

CC[C@H]1OC(=O)[C@H](C)[C@@H](O[C@H]2C[C@@](C)(OC)[C@@H](O)[C@H](C)O2)[C@H](C)[C@@H](O[C@@H]2O[C@H](C)C[C@H](N(C)C)[C@H]2O)[C@](C)(O)C[C@@H](C)C(=O)[C@H](C)[C@@H](O)[C@]1(C)O [Erythromycin]
MIC, E. coli, MHB+ (E. coli (K-12 BW25113)): 32 | MIC, S. aureus, MHB− [1]: 32 µg/mL

C[C@@H]1O[C@@H]1P(=O)(O)O [Fosfomycin]
Fold, E. coli (E. coli (K-12 BW25113)): −4 fold | MIC, E. coli, MHB+ (E. coli (K-12 BW25113)): 16 | Fold, S. aureus [1]: −4 fold | MIC, S. aureus, MHB− [1]: 16 µg/mL

O=CN(O)CCCP(=O)(O)O [Fosmidomycin]
Fold, E. coli (E. coli (K-12 BW25113)): −2 fold | MIC, E. coli, MHB+ (E. coli (K-12 BW25113)): 32 | Fold, S. aureus [1]: 1 fold | MIC, S. aureus, MHB− [1]: > 64 µg/mL

NC[C@H]1O[C@H](O[C@H]2[C@H](O)[C@@H](O[C@H]3O[C@H](CO)[C@@H](O)[C@H](N)[C@H]3O)[C@H](N)C[C@@H]2N)[C@H](O)[C@@H](O)[C@@H]1O [Kanamycin]
Fold, E. coli (E. coli (K-12 BW25113)): 4 fold | MIC, E. coli, MHB+ (E. coli (K-12 BW25113)): 1 | Fold, S. aureus [1]: 2 fold | MIC, S. aureus, MHB− [1]: 8 µg/mL

C[C@H]1COc2c(N3CCN(C)CC3)c(F)cc3c(=O)c(C(=O)O)cn1c23 [Levofloxacin]
Fold, E. coli (E. coli (K-12 BW25113)): 1 fold | MIC, E. coli, MHB+ (E. coli (K-12 BW25113)): 0.0313 | Fold, S. aureus [1]: −2 fold | MIC, S. aureus, MHB− [1]: 0.5 µg/mL

CC(=O)NC[C@H]1CN(c2ccc(N3CCOCC3)c(F)c2)C(=O)O1 [Linezolid]
Fold, E. coli (E. coli (K-12 BW25113)): 1 fold | MIC, E. coli, MHB+ (E. coli (K-12 BW25113)): 256 | Fold, S. aureus [1]: 1 fold | MIC, S. aureus, MHB− [1]: 0.625 µg/mL

COc1c(N2C[C@@H]3CCCN[C@@H]3C2)c(F)cc2c(=O)c(C(=O)O)cn(C3CC3)c12 [Moxifloxacin]
MIC, E. coli, MHB+ (E. coli (K-12 BW25113)): 0.0156 | MIC, S. aureus, MHB− [1]: 0.125 µg/mL

CCn1cc(C(=O)O)c(=O)c2ccc(C)nc21 [Nalidixic acid]
Fold, E. coli (E. coli (K-12 BW25113)): −4 fold | MIC, E. coli, MHB+ (E. coli (K-12 BW25113)): 8 | Fold, S. aureus [1]: −4 fold | MIC, S. aureus, MHB− [1]: > 8 µg/mL

CCn1cc(C(=O)O)c(=O)c2cc(F)c(N3CCNCC3)cc21 [Norfloxacin]
Fold, E. coli (E. coli (K-12 BW25113)): 2 fold | MIC, E. coli, MHB+ (E. coli (K-12 BW25113)): 0.0625 | Fold, S. aureus [1]: −2 fold | MIC, S. aureus, MHB− [1]: 0.5 µg/mL

CO[C@@H]1[C@@H](OC(N)=O)[C@@H](O)[C@H](Oc2ccc3c(O)c(NC(=O)c4ccc(O)c(CC=C(C)C)c4)c(=O)oc3c2C)OC1(C)C [Novobiocin]
Fold, E. coli (E. coli (K-12 BW25113)): −8 fold | MIC, E. coli, MHB+ (E. coli (K-12 BW25113)): >256 | Fold, S. aureus [1]: −16 fold | MIC, S. aureus, MHB− [1]: 0.031 µg/mL

Cc1onc(-c2ccccc2)c1C(=O)N[C@@H]1C(=O)N2[C@@H]1SC(C)(C)[C@@H]2C(=O)O [Oxacillin]
Fold, E. coli (E. coli (K-12 BW25113)): −2 fold | MIC, E. coli, MHB+ (E. coli (K-12 BW25113)): >256 | Fold, S. aureus [1]: −16 fold | MIC, S. aureus, MHB− [1]: 0.0625 µg/mL

NC[C@@H]1O[C@H](O[C@H]2[C@@H](O)[C@H](O[C@@H]3[C@@H](O)[C@H](N)C[C@H](N)[C@H]3O[C@H]3O[C@H](CO)[C@@H](O)[C@H](O)[C@H]3N)O[C@@H]2CO)[C@H](N)[C@@H](O)[C@@H]1O [Paromomycin]
Fold, E. coli (E. coli (K-12 BW25113)): 2 fold | MIC, E. coli, MHB+ (E. coli (K-12 BW25113)): 1 | Fold, S. aureus [1]: 1 fold | MIC, S. aureus, MHB− [1]: 2 µg/mL

CCN1CCN(C(=O)N[C@@H](C(=O)N[C@@H]2C(=O)N3[C@@H]2SC(C)(C)[C@@H]3C(=O)O)c2ccccc2)C(=O)C1=O [Piperacillin]
Fold, E. coli (E. coli (K-12 BW25113)): 2 fold | MIC, E. coli, MHB+ (E. coli (K-12 BW25113)): 1 | Fold, S. aureus [1]: −4 fold | MIC, S. aureus, MHB− [1]: 0.25 µg/mL
